According to ChEMBL document CHEMBL5620412, “Discovery of benzofuran-2-carboxylic acid derivatives as lymphoid tyrosine phosphatase (LYP) inhibitors for cancer immunotherapy” (Eur J Med Chem, 2023):

How the values were obtained:
[1] = molecular target: T1, Tyrosine-protein phosphatase non-receptor type 5 (Homo sapiens, UniProt P54829); experiment: Inhibition of N-terminal His-tagged PTPN5 catalytic domain (1 to 294 residues) (unknown origin) expressed in Escherichia coli BL21 (DE3) cells
T1 sequence (P54829 whole entry): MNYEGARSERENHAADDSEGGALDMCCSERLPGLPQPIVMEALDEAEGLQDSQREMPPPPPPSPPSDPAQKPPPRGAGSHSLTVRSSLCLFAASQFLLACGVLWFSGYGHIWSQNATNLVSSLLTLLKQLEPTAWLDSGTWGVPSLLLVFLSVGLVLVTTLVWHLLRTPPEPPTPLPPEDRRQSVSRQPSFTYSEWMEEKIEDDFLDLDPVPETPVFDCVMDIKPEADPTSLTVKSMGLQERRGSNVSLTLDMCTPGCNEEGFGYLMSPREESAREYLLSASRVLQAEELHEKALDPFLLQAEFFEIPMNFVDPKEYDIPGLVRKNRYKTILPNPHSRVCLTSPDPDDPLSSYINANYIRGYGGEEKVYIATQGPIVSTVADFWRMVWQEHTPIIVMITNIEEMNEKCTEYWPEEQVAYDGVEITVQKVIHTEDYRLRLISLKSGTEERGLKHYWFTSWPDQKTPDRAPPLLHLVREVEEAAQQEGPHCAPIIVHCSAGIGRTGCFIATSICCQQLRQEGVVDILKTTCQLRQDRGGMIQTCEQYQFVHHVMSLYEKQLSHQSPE

[2] = molecular target: T2, Tyrosine-protein phosphatase non-receptor type 1 (Homo sapiens, UniProt P18031); experiment: Inhibition of N-terminal His-tagged PTP1B catalytic domain (1 to 294 residues) (unknown origin) expressed in Escherichia coli BL21 (DE3) cells
T2 sequence (P18031 whole entry): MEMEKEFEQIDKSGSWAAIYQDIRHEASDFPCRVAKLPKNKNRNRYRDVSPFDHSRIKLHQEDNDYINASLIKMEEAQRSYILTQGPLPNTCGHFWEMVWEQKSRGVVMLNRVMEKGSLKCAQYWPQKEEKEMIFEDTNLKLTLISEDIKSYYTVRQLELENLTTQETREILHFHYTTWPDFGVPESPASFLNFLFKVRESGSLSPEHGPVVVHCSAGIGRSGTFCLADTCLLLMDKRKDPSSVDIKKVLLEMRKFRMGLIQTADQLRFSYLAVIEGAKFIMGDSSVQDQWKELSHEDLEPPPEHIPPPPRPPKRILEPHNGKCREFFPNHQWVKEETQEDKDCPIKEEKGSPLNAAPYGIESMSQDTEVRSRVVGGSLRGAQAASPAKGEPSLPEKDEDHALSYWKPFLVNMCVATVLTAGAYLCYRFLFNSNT

[3] = (§1) Selectivity ratio of IC50 for inhibition of N-terminal His-tagged PTPN5 catalytic domain (1 to 294 residues) (unknown origin) expressed in Escherichia coli BL21 (DE3) cells to IC50 for inhibition of N-terminal His-tagged LYP catalytic domain (1 to 294 residues) (unknown origin) expressed in Escherichia coli BL21 (DE3) cells using pNPP as substrate
[4] = as §1, with “SSH2” for “PTPN5”
[5] = as §1, with “PTP1B” for “PTPN5”
[6] = as §1, with “PTPN12” for “PTPN5”
[7] = molecular target: T3, Tyrosine-protein phosphatase non-receptor type 22 (Homo sapiens, UniProt Q9Y2R2); experiment: Inhibition of N-terminal His-tagged LYP catalytic domain (1 to 294 residues) (unknown origin) expressed in Escherichia coli BL21 (DE3) cells using pNPP as substrate by absorbance based plate reader analysis
T3 sequence (Q9Y2R2 whole entry): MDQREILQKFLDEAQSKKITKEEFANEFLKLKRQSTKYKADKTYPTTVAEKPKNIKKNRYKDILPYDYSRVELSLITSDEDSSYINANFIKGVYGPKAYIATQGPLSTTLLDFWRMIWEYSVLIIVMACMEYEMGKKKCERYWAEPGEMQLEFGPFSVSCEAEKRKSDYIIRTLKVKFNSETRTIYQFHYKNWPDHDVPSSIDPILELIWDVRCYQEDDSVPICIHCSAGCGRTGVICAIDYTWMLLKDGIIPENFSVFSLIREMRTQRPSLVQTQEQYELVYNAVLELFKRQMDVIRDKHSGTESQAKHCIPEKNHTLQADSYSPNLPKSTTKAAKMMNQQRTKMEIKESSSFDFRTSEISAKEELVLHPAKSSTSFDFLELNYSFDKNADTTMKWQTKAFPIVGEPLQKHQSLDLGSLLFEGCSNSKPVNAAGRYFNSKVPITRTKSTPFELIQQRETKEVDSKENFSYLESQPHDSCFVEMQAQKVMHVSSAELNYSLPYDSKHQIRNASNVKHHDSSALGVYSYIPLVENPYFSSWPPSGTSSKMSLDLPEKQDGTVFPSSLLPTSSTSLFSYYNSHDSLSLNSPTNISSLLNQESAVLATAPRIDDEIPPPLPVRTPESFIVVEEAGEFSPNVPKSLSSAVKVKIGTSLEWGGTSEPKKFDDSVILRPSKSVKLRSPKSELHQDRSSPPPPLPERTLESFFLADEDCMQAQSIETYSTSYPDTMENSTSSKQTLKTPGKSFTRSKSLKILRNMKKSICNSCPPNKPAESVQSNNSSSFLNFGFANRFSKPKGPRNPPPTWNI

## COc1ccc(-c2ccc(CN(c3ccc4oc(C(=O)O)cc4c3)S(=O)(=O)c3ccc(Cl)c([N+](=O)[O-])c3)cc2)cc1
[1]
  IC50: > 20 µM
[2]
  IC50: 13.7 µM

## O=C(O)c1cc2cc(N(Cc3cccc(-c4ccccc4)c3)S(=O)(=O)c3ccc(-c4ccccc4)cc3)ccc2o1
[3]
  Ratio IC50: > 5.5
[4]
  Ratio IC50: > 5.5
[1]
  IC50: > 20 µM
[5]
  Ratio IC50: 1.8
[6]
  Ratio IC50: 1.8
[7]
  IC50: 3.23 µM
[2]
  IC50: 5.9 µM

## O=C(O)c1cc2cc(N(Cc3ccc(-c4ccccc4)cc3)S(=O)(=O)c3ccc(-c4cccc(O)c4)cc3)ccc2o1
[3]
  Ratio IC50: > 5.5
[4]
  Ratio IC50: > 5.5
[1]
  IC50: > 20 µM
[5]
  Ratio IC50: 1.8
[6]
  Ratio IC50: 1.8
[7]
  IC50: 3.59 µM
[2]
  IC50: 6.4 µM

## O=C(O)c1cc2cc(N(Cc3ccc(OCc4ccccc4)cc3)S(=O)(=O)c3ccc(-c4ccccc4)cc3)ccc2o1
[3]
  Ratio IC50: > 3.5
[4]
  Ratio IC50: > 5.5
[1]
  IC50: > 20 µM
[5]
  Ratio IC50: > 3.5
[6]
  Ratio IC50: > 3.5
[7]
  IC50: 2.55 µM
[2]
  IC50: 10.7 µM

## CC(=O)C1=C(C)N=c2s/c(=C/c3ccc(OCc4ccc(C(=O)O)cc4)cc3)c(=O)n2C1c1ccc(N(C)C)cc1 (stereo not drawn)
[1]
  IC50: > 20 µM
[5]
  Ratio IC50: 1.2
[6]
  Ratio IC50: 1.2
[7]
  IC50: 6.1 µM
[2]
  IC50: 7.1 µM
